Reference: publication PMC11970527 (RSC Chemical Biology, 2025)
Like-named read-outs stand apart in the source and are kept apart here.

Assays:
TcdB CPD = TcdB CPD (Clostridioides difficile, UniProt P18177); assay: isothermal calorimetry; type: binding
phytase-4 = assay: stability against phytase-4 by 31P NMR; type: in vitro ADME, wheat; details: 4 mM ligand, over 32 h, 100 mM acetate buffer pH 5
[1] = Precipitation Assay with CaCl2; type: physicochemical; details: 4 mM ligand, pH 7.4, 100 mM tris
AvrA [2] = target: T1, AvrA (Salmonella enterica subsp. enterica serovar Typhimurium, UniProt E8XKZ3); details: read-out: Kd previously described; cited from earlier work
T1 sequence (E8XKZ3 1-301): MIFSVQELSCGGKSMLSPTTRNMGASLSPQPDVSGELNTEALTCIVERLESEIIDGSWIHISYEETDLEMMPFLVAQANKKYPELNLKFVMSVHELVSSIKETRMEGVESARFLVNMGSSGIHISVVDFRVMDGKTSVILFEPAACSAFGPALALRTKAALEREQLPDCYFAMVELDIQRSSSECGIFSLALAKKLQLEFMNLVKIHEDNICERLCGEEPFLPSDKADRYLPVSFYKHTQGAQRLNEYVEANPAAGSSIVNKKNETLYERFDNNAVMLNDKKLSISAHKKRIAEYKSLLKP

VopA = assay: differential scanning fluorimetry; type: binding, Vibrio parahaemolyticus; details: DSF, nonlinear curve fit, n = 5
[3] = pH 7.4; cited from earlier work
AvrA [4] = target: T1, AvrA; assay: isothermal calorimetry; type: binding

Chain of TcdB CPD (P18177 543-799 limits assumed): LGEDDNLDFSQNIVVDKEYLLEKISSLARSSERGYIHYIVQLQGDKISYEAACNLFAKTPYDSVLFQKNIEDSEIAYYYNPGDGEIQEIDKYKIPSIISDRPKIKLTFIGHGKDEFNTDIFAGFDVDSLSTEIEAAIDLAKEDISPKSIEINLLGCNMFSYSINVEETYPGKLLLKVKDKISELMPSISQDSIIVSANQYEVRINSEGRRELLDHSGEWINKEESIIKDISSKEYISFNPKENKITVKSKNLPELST

Question: Which Kd (TcdB CPD) does the source give for `O=P(O)(O)O[C@H]1[C@H](OP(=O)(O)O)[C@@H](OP(=O)(O)O)[C@H](OP(=O)(O)O)[C@@H](OP(=O)(O)O)[C@H]1OP(=O)(O)O` [IP6, myo-inositol hexakisphosphate] here?
Answer: Its Kd is 1.92 µM.

Question: And the koff (TcdB CPD)?
Answer: The koff was 0.0409 s⁻¹.

Question: What about the ΔH (TcdB CPD; TcdB CPD, ITC, 20 °C, mean (SD)) of the same molecule?
Answer: Its ΔH is −22.94 (0.05) kcal mol^−1.

Question: What about the “stability in the presence of phytase-4” value (phytase-4) of the same molecule?
Answer: Its value is “hydrolysed within the first hour”.

Question: And the “CaCl2 concentration that induces precipitation (X0)” value [1]?
Answer: The value was 4 mM.

Question: What about the Kd (AvrA [2]) of the same molecule?
Answer: The Kd was 5.18 µM.

Question: What about the “Maximal ΔTM” value (VopA) of the same molecule?
Answer: The value was 12.4 °C.

Question: What about the net charge [3] of the same molecule?
Answer: Its net charge is −8.

Question: And the koff (AvrA [4])?
Answer: The koff was 0.00171 s⁻¹.

Question: And the ΔH (AvrA [4]; AvrA, ITC, 20 °C, mean (SD))?
Answer: Its ΔH is −21.09 (0.12) kcal mol^−1.

Question: What about the Kd (AvrA [4]; K d, AvrA, ITC, 20 °C, mean (SD)) of the same molecule?
Answer: Its Kd is 0.139 µM.
